Measured values from patent publication US9029293B2, “Tobacco axillary bud inhibitor and tobacco axillary bud-inhibiting method” (priority 2011, dated 2015).

Experiments:
[1] = test system: axillary buds of tobacco Tsukuba 1 (flue-cured cultivar); assay: Axillary bud growth inhibition, pot test in glasshouse, spraying after top pruning (flue-cured cultivar); type: in vivo, Nicotiana tabacum; details: 28 days after spraying
Procedure: (§1) Tobacco seedlings of Tsukuba 1 (flue-cured cultivar) and Michinoku 1 (burley cultivar) were transplanted to 1/5000a Wagner pots filled with Kureha garden nursery soil. The plants were grown in a glasshouse, and the floral axis parts were removed at the time of single-flower bloom of tobacco (top pruning).
(§2) The formulations of the inhibitors for tobacco axillary bud growth obtained in Formulation Examples 1 to 4 above were each diluted with water to predetermined concentrations, and 20 ml of the water-diluted solutions of the respective inhibitors were separately sprayed using a contact-type axillary bud inhibitor spraying instrument equipped with a spot exhaust nozzle (Examples 1 to 4 and 5 to 8). In addition, butralin (trade name: Blue Ribbon) (Comparative Examples 1 to 2 and 5 to 6) and decyl alcohol (trade name: Contact) (Comparative Examples 3 to 4 and 7 to 8) were used for tests as comparative examples in the same manner as above. In the cases of both the flue-cured cultivar and burley cultivar, one plant was planted per pot, and the tests were carried out in duplicate.
(§3) For the respective cases, states of inhibition of axillary bud growth 28 days after the spraying were investigated together with untreated groups sprayed with no inhibitor, and axillary bud growth inhibition ratios were calculated by the following equation. Axillary bud growth inhibition ratio=(fresh weight of axillary buds per plant of untreated group−fresh weight of axillary buds per plant of treated group)÷(fresh weight of axillary buds per plant of untreated group)×100 [Math. 1]
(§4) Formulation of Formulation Example 1 or Formulation Example 3 was diluted with water to predetermined concentrations and mixed with decyl alcohol (manufactured by Wako Pure Chemical Industries, Ltd.), 2-ethylhexanol (manufactured by Wako Pure Chemical Industries, Ltd.) or geraniol (manufactured by Wako Pure Chemical Industries, Ltd.) at predetermined concentrations, and the resultant was adjusted and used for tests (Examples 9 to 14 and 15 to 20). In addition, as comparative examples, the formulation of Formulation Example 1 or Formulation Example 3 diluted with water to predetermined concentrations (Comparative Examples 9 to 10 and 14 to 15) and decyl alcohol, 2-ethylhexanol or geraniol diluted with water to a predetermined concentration were used for tests (Comparative Examples 11 to 13 and 16 to 18).
(§5) The respective inhibitors were sprayed in the same manner as in Test Example 1, and states of inhibition of axillary bud growth 28 days after the spraying were investigated together with untreated groups sprayed with no inhibitor. Then, axillary bud growth inhibition ratios were calculated.

[2] = test system: axillary buds of tobacco Michinoku 1 (burley cultivar); assay: Axillary bud growth inhibition, pot test in glasshouse, spraying after top pruning (burley cultivar); type: in vivo, Nicotiana tabacum; details: 28 days after spraying
Procedure: as §1, §2, §3, §4, §5

[3] = test system: leaves (first to fourth from the top) of tobacco Michinoku 1 (burley cultivar); assay: Harmful effect of inhibitor on leaves (burley cultivar); set-up: species or system Nicotiana tabacum; details: in vivo
Procedure: as §1, §2
Further, the presence or absence of the harmful effect of each inhibitor was evaluated in one of the following four categories depending on the degrees of growth inhibition, gangrene, change in color, deformation and the like of leaves (first to fourth leaves from the top). […]

[4] = active ingredient 0.03%, 20 ml sprayed
[5] = active ingredient 2.6%, 20 ml sprayed
[6] = active ingredient 0.35%, 20 ml sprayed

Row | SMILES | Axillary bud growth inhibition ratio (%) [1, 4] [%] | Axillary bud growth inhibition ratio (%) ([1]; active ingredient 0.5%) | Axillary bud growth inhibition ratio (%) [2, 4] [%] | Axillary bud growth inhibition ratio (%) ([2]; active ingredient 0.5%) | Harmful effect of inhibitor [3] | Axillary bud growth inhibition ratio (%) ([1]; active ingredient 0.005%) | Axillary bud growth inhibition ratio (%) ([2]; active ingredient 0.005%) | other results
1 | CCCCCCCCCCO [Decyl Alcohol, decyl alcohol] | 0 | 30 | 0 | 37 | Absent | – | – | Axillary bud growth inhibition ratio (%) [1, 5]: 91%; Axillary bud growth inhibition ratio (%) [2, 5]: 94%
2 | C#CC(C)(C)NC(=O)c1cc(Cl)cc(Cl)c1 [Propyzamide, propyzamide] | – | – | – | – | – | 70 | 72 | –
3 | CCCCC(CC)CO (centres unmarked) [2-ethylhexanol] | – | 21 | – | 28 | – | – | – | –
4 | CC(C)=CCC/C(C)=C/CO [Geraniol, geraniol] | – | 26 | – | 32 | – | – | – | –
5 | CSC(=O)c1c(C(F)F)nc(C(F)(F)F)c(C(=O)SC)c1CC(C)C [Dithiopyr, dithiopyr] | – | – | – | – | – | 75 | 78 | –
6 | CCC(C)Nc1c([N+](=O)[O-])cc(C(C)(C)C)cc1[N+](=O)[O-] (centres unmarked) [Butralin, butralin] | 44 | – | 48 | – | Absent | – | – | Axillary bud growth inhibition ratio (%) [1, 6]: 98%; Axillary bud growth inhibition ratio (%) [2, 6]: 97%
